Counter-ions that a name gives are not always drawn.
Columns and labels:
[1] = doses up to 400 mg per day, given as a single dose; cited from earlier work
[2] = system: PLMD and RLS and Primary snoring; experiment: Case reports: patient with sleep study diagnosed PLMD, RLS and Primary snoring taking the drug orally; assay type: in vivo, human; conditions: for RLS and PLMD symptoms on chronic use: symptoms returned immediately after stopping
Procedure: An otherwise healthy non-obese person with sleep study diagnosed PLMD and RLS and Primary snoring without apnea, 61 kg, took Requip, ropinirole HCL from 0.25 to 0.75 mg orally per day for PLMS and RLS for a period of over 8-12 months. PLM were severe enough to occasionally awaken them from sleep. […] Multiple attempts at gaining relief were made over a period of 8-12 months. These attempts failed. […]

[3] = system: restless leg syndrome and PLMS, and Primary snoring; experiment: Overnight polysomnographic sleep study, evening dosage; assay type: in vivo, human; conditions: oral 50 mg in the evening, versus baseline without drug
Description: A non-obese subject with no outstanding medical history other than restless leg syndrome and PLMS of 6 years duration, and Primary snoring, 60 kg, was entered into an overnight sleep study in a specialist hospital sleep disorder center. […] Snoring as represented by the Snore Index was reduced 70%.

[4] = cited from earlier work; for share of trough concentration (Cminss) of circulating modafinil: after once daily dosing of racemic modafinil
RLS = conditions: moderate to severe RLS; cited from earlier work
[5] = 50 mg by mouth 1-3 hours prior to bedtime
[6] = 50 mg by mouth between 8 am and noon
[7] = 50 mg or 25 mg by mouth in the morning

NC(=O)C[S+]([O-])C(c1ccccc1)c1ccccc1 (racemic) [modafinil, 2-[(diphenylmethyl)sulfiny]acetamide]
tolerability [1]: well tolerated | symptoms ([2]; 25 mg as needed, evening dosage): either completely relieved or greatly diminished | removal of symptoms at lower dosage ([2]; 25 mg by mouth in the morning): failed to entirely remove symptoms | limb movements and the urge to move the limb and associated sensations while awake [2, 5]: greatly reduced | time until limb movements and urge were greatly reduced [2, 5]: approximately 90 minutes | leg jerks during sleep observed by partner [2, 6]: no leg jerks during sleep were observed | limb movements and snoring while asleep noticed by partner [2, 6]: absence of limb movements and snoring | restfulness noted by patient [2, 6]: increased restfulness | urge to move legs in the evenings [2, 6]: No urge to move legs in the evenings occurred | limb movements and the urge to move the limb and associated sensations while awake [2, 7]: greatly reduced | snoring noted by sleep partner [2, 7]: marked decrease in snoring | leg jerks during sleep observed by partner ([2]; 100 mg by mouth in the morning): no leg jerks during sleep were observed | limb movements and snoring while asleep noticed by partner ([2]; 100 mg by mouth in the morning): absence of limb movements and snoring | restfulness noted by patient ([2]; 100 mg by mouth in the morning): increased restfulness | urge to move legs in the evenings ([2]; 100 mg by mouth in the morning): No urge to move legs in the evenings occurred | RLS and PLMD symptoms on chronic use ([2]; evening dosage, every day for periods of 5 to 7 days): periods free from RLS and PLMD symptoms | RLS and PLMD symptoms on chronic use ([2]; morning dosage 50 or 25 mg, every day for periods of up to 11 days): periods free from RLS and PLMD symptoms | PLMs during sleep [3]: not detected | reduction of snoring as represented by the Snore Index [3]: 70%

NC(=O)C[S+]([O-])C(c1ccccc1)c1ccccc1 (single isomer, unassigned) [d-isomer]
share of trough concentration (Cminss) of circulating modafinil [4]: 10%

NC(=O)C[S@@+]([O-])C(c1ccccc1)c1ccccc1 [I-isomer, r-2-((diphenylmethyl)sulfinyl)-acetamide]
share of trough concentration (Cminss) of circulating modafinil [4]: 90% | total exposure at steady state relative to that for the d-isomer ([4]; taken orally, steady state): approximately three

CCCN(CCC)CCc1cccc2c1CC(=O)N2 [Requip, ropinirole HCL]
additional complications reported by patients (RLS): constipation and daytime sleepiness | PLMS according to the partner ([2]; ropinirole HCL 0.25 to 0.75 mg orally per day, over 8-12 months): PLMS continued | relief of RLS/PLMS symptoms ([2]; ropinirole HCL 0.25 to 0.75 mg orally per day, over 8-12 months, person): did not relieve symptoms

— patent US20100010092A1, “USE OF MODAFINIL TO TREAT RESTLESS LEG SYNDROME” (Arless Ltd., priority 2006, published 2010)
